Assay [1] addresses T1, Estrogen receptor (Homo sapiens) (UniProt P03372).
T1 sequence (whole entry): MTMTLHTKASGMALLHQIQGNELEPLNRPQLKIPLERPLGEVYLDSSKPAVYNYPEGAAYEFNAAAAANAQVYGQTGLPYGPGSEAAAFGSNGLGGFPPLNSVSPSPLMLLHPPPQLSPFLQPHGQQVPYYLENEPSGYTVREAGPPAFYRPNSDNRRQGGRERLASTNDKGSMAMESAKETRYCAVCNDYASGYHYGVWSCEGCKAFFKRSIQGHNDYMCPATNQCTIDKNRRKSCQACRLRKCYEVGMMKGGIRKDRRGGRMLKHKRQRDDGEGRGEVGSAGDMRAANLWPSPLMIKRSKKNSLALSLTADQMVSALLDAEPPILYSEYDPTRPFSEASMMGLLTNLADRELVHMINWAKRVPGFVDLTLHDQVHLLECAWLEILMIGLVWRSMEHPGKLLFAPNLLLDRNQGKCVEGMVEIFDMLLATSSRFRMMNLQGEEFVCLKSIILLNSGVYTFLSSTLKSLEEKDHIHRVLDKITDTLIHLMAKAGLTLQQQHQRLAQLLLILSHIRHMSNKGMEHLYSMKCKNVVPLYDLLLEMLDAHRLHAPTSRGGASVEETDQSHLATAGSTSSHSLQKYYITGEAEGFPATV
The experiment in a line: Displacement of [3H]estradiol from human full length estrogen receptor alpha by competitive radiometric assay relative to estradiol. A general note: Displacement assays read how much labelled ligand stays bound in the presence of the test substance.

The target in assay [2] is Estrogen receptor beta (Homo sapiens) (UniProt Q92731). The experiment in a line: Displacement of [3H]estradiol from human full length estrogen receptor beta by competitive radiometric assay relative to estradiol.
Chain of Estrogen receptor beta (Homo sapiens) (Q92731 whole entry): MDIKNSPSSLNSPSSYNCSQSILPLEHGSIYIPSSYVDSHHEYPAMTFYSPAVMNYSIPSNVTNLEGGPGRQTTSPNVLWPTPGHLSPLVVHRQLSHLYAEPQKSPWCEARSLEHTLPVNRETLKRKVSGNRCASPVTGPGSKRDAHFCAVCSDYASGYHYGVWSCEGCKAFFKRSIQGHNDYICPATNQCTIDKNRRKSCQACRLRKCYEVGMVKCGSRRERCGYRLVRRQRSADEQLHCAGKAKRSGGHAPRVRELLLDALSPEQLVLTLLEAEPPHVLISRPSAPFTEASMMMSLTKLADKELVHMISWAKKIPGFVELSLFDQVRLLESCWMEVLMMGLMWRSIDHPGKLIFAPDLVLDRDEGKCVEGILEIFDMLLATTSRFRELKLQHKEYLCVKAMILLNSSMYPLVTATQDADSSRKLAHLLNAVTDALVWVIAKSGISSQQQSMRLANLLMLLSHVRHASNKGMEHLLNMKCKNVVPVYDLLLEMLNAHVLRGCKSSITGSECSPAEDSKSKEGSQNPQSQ

On to `C[C@]12CC[C@@H](c3ccc(O)cc3)C[C@H]1CC[C@H]2O`, for which the relative binding affinity (RBA) worked out at 0.061 in assay [1] and 0.59 in assay [2].

In the case of `C[C@]12CC[C@@]3(C[C@H]1CC[C@H]2O)OCc1cc(O)ccc13`, the relative binding affinity (RBA) was 0.014 in assay [1] and 0.02 in assay [2].

Consider `C[C@]12CC[C@H](c3ccc(O)cc3)C[C@@H]1CC[C@@H]2O`, for which the relative binding affinity (RBA) is 2.38 in assay [1] and 9.97 in assay [2].

Consider `C[C@]12CC[C@]3(CCc4cc(O)ccc43)C[C@@H]1CC[C@@H]2O`, for which the relative binding affinity (RBA) in assay [1] came to 0.12; in assay [2] it was 0.23.

Take `C[C@]12CC[C@]3(C[C@H]1CC[C@@H]2O)OC(=O)c1cc(O)ccc13`: the relative binding affinity (RBA) in assay [1] is 1.98; in assay [2], 6.07.

Consider `C[C@]12CC[C@@]3(CCCc4cc(O)ccc43)C[C@H]1CC[C@@H]2O`, for which the relative binding affinity (RBA) was 3.7 in assay [1] and 39.7 in assay [2].

Regarding `C[C@]12CC[C@]3(C[C@H]1CC[C@@H]2O)OCCc1cc(O)ccc13`, the relative binding affinity (RBA) in assay [1] was 0.31; in assay [2], 3.47.

For `C[C@]12CC[C@]3(C[C@H]1CC[C@@H]2O)OCc1cc(O)ccc13`, the relative binding affinity (RBA) in assay [1] came to 2.46; in assay [2], 9.05.

For the molecule `C[C@]12CC[C@]3(CCc4cc(O)ccc43)C[C@H]1CC[C@H]2O`, the values for the relative binding affinity (RBA) in assay [1] and in assay [2] were 0.34 and 0.37, respectively.

For `C[C@]12CC[C@]3(CCCc4cc(O)ccc43)C[C@H]1CC[C@H]2O`, the relative binding affinity (RBA) in assay [1] is 0.05; in assay [2], 0.16.

For `C[C@]12CC[C@@]3(CCc4cc(O)ccc43)C[C@@H]1CC[C@@H]2O`, the relative binding affinity (RBA) in assay [1] came out at 0.98; in assay [2], 2.43.

Regarding `C[C@]12CC[C@@]3(CCc4cc(O)ccc43)C[C@H]1CC[C@@H]2O`, the relative binding affinity (RBA) is 6.4 in assay [1] and 40.5 in assay [2].

For the origin of these results see ChEMBL document CHEMBL2029345, “BC-spiro-estradiols. Synthesis and estrogen receptor binding affinity of four new estradiol isomers” (Bioorg Med Chem Lett, 2012).
